Literature values, collected in patent US20140057987A1, “Disinfectant Spray with Indicator” (GENESIS LABORATORIES, INC., priority 2010, published 2014).

details: colour change of indicator

Molecule	Transition pH range
O=C(O)c1cc(N=Nc2ccc([N+](=O)[O-])cc2)ccc1O [Alizarine Yellow R]	10.2-12.0 pH
Cc1c(C2(c3cc(Br)c(O)c(Br)c3C)OS(=O)(=O)c3ccccc32)cc(Br)c(O)c1Br [Bromocresol green]	3.8-5.4 pH
Cc1cc(C2(c3cc(C)c(O)c(Br)c3)OS(=O)(=O)c3ccccc32)cc(Br)c1O [Bromocresol purple]	5.2-6.8 pH
O=S1(=O)OC(c2cc(Br)c(O)c(Br)c2)(c2cc(Br)c(O)c(Br)c2)c2ccccc21 [Bromophenol blue]	3.0-4.6 pH
Cc1c(C2(c3cc(C(C)C)c(O)c(Br)c3C)OS(=O)(=O)c3ccccc32)cc(C(C)C)c(O)c1Br [Bromothymol blue]	6.0-7.6 pH
Nc1c(/N=N/c2ccc(-c3ccc(/N=N/c4cc(S(=O)(=O)O)c5ccccc5c4N)cc3)cc2)cc(S(=O)(=O)O)c2ccccc12 [Congo red]	3.0-5.0 pH
Cc1cc(C2(c3ccc(O)c(C)c3)OS(=O)(=O)c3ccccc32)ccc1O [Cresol Red]	7.2-8.8 pH
CN(C)c1ccc(C(=C2C=CC(=[N+](C)C)C=C2)c2ccc(N(C)C)cc2)cc1 [Gentian violet(Methyl violet 10B), Gentian violet]	0.0-2.0 pH
CN(C)c1ccc(N=Nc2ccc(S(=O)(=O)[O-])cc2)cc1.[Na+] [Methyl orange]	3.1-4.4 pH
CN(C)c1ccc(N=Nc2ccccc2)cc1 [Methyl yellow]	2.9-4.0 pH
O=C1OC(c2ccc(O)c3ccccc23)(c2ccc(O)c3ccccc23)c2ccccc21 [Naphtholphthalein]	7.3-8.7 pH
Cc1cc2nc3ccc(N(C)C)cc3nc2cc1N.Cl [Neutral red]	6.8-8.0 pH
O=C1OC(c2ccc(O)cc2)(c2ccc(O)cc2)c2ccccc21 [Phenolphthalein]	8.3-10.0 pH
Cc1cc(O)c(C(C)C)cc1C1(c2cc(C(C)C)c(O)cc2C)OC(=O)c2ccccc21 [Thymolphthalein]	9.3-10.5 pH
Azolitmin	4.5-8.3 pH

same assay, conditions: colour change of indicator; high pH color green

Molecule	Transition pH range
CN(C)c1ccc(/N=N/c2ccccc2C(=O)O)cc1 [Methyl red]	4.5-5.2 pH

same assay, conditions: colour change of indicator; high pH color yellow

Molecule	Transition pH range
CN(C)c1ccc(/N=N/c2ccccc2C(=O)O)cc1 [Methyl red]	4.4-6.2 pH

same assay, conditions: first transition

Molecule	Transition pH range
CN(C)c1ccc(C(c2ccccc2)c2ccc(N(C)C)cc2)cc1 [Leucomalachite green]	0.0-2.0 pH
Cc1cc(O)c(C(C)C)cc1C1(c2cc(C(C)C)c(O)cc2C)OS(=O)(=O)c2ccccc21 [Thymol blue]	1.2-2.8 pH

same assay, conditions: second transition

Molecule	Transition pH range
CN(C)c1ccc(C(c2ccccc2)c2ccc(N(C)C)cc2)cc1 [Leucomalachite green]	11.6-14.0 pH
Cc1cc(O)c(C(C)C)cc1C1(c2cc(C(C)C)c(O)cc2C)OS(=O)(=O)c2ccccc21 [Thymol blue]	8.0-9.6 pH
